Assay results as given in patent US20210318318A1, “Kinase Activity In Tumors” (Institute For Cancer Research d/b/a The Research Institute …, priority 2018, published 2021).
“Also recorded” adds a separate entry of the source.

Tests used:
[1] = system: FAK1, MLC and Paxillin phosphorylation; FAK1 and CHEK1 protein levels; assay: Western blot of signaling in inhibitor-treated HGSOC cells; type: cell-based, human; conditions: 48 hours; for FAK1, MLC and Paxillin phosphorylation: HGSOC (COV362) cells, increasing doses 0.5, 1 or 3 μM
Procedure: COV362 cells were treated with 0.5, 1 or 3 μM of A-674563 or SB-772077 for 48 hours and signaling monitored by western blot.
Samples were harvested in MIB lysis buffer, subjected to SDS-PAGE […] and transferred to PVDF membranes before western blotting with primary antibodies. For pMYPT and pMLC blots, cells were harvested in a buffer containing 1% (w/v) SDS, 50 mM Tris pH 7.5 supplemented with protease and phosphatase inhibitors buffer and were passed through QIAshredder columns (Qiagen, 79654), (Unbekandt et al., Cell Commun. Signal., 2014, 12, 54). For the list of primary antibodies used, see Table 4. Secondary HRP-anti-rabbit and HRP-anti-mouse were obtained from ThermoFisher Scientific. SuperSignal West Pico and Femto Chemiluminescent Substrates (Thermo) were used to visualize blots.

MRCKA [2] = molecular target: T1, MRCKA (Homo sapiens, UniProt Q5VT25); conditions: Unbekandt et al., 2014; cited from earlier work
T1 sequence (Q5VT25 whole entry): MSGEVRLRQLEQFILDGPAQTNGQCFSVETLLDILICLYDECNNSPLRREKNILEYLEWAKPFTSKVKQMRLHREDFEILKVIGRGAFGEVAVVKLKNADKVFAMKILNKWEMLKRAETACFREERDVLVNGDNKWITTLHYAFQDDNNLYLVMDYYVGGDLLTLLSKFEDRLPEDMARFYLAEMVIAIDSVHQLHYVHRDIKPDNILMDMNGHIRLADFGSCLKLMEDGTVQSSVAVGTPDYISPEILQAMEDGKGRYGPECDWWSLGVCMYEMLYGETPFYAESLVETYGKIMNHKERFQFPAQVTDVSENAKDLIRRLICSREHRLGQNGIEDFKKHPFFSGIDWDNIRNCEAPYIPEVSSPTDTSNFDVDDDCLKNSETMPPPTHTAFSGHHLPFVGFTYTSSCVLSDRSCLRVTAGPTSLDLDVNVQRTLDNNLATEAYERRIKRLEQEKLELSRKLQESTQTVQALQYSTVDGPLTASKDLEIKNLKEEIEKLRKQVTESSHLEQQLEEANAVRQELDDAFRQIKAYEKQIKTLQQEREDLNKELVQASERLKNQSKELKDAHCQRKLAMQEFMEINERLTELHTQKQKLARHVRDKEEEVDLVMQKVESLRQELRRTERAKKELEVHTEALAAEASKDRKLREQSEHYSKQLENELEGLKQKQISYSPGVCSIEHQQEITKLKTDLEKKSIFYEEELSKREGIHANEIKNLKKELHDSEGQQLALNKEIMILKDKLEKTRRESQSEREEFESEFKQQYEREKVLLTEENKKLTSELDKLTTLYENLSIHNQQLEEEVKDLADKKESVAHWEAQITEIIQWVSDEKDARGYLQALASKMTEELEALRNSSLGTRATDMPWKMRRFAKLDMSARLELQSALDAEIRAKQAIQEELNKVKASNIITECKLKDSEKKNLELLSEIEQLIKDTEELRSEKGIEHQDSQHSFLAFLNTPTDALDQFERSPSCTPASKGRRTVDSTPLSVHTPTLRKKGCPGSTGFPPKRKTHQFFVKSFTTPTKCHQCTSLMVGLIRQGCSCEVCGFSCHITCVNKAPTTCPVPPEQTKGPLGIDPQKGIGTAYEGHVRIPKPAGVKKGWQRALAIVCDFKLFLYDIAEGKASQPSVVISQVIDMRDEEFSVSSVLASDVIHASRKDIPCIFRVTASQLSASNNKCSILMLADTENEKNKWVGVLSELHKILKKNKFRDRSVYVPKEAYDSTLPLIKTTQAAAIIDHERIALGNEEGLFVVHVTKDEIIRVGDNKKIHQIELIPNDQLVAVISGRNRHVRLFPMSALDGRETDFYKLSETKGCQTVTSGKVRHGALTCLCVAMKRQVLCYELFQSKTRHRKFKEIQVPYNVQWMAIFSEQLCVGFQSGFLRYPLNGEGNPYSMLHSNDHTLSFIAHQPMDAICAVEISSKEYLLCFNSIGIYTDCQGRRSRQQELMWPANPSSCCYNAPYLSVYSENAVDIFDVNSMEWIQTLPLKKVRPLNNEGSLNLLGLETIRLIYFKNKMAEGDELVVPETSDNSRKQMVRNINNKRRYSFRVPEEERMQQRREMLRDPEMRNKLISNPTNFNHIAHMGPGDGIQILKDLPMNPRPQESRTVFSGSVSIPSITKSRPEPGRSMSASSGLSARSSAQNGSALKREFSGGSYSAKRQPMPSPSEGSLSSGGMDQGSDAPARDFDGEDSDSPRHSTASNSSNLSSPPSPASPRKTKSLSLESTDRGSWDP

MRCKB [3] = molecular target: T2, MRCKB (Homo sapiens, UniProt Q9Y5S2); assay: BDP5290 target profiling (in vitro kinase assays, MIB/MS and MIB-bead selectivity profiling); type: binding
T2 construct: endogenous in cells; host or cells: OVSAHO
T2 sequence (Q9Y5S2 whole entry): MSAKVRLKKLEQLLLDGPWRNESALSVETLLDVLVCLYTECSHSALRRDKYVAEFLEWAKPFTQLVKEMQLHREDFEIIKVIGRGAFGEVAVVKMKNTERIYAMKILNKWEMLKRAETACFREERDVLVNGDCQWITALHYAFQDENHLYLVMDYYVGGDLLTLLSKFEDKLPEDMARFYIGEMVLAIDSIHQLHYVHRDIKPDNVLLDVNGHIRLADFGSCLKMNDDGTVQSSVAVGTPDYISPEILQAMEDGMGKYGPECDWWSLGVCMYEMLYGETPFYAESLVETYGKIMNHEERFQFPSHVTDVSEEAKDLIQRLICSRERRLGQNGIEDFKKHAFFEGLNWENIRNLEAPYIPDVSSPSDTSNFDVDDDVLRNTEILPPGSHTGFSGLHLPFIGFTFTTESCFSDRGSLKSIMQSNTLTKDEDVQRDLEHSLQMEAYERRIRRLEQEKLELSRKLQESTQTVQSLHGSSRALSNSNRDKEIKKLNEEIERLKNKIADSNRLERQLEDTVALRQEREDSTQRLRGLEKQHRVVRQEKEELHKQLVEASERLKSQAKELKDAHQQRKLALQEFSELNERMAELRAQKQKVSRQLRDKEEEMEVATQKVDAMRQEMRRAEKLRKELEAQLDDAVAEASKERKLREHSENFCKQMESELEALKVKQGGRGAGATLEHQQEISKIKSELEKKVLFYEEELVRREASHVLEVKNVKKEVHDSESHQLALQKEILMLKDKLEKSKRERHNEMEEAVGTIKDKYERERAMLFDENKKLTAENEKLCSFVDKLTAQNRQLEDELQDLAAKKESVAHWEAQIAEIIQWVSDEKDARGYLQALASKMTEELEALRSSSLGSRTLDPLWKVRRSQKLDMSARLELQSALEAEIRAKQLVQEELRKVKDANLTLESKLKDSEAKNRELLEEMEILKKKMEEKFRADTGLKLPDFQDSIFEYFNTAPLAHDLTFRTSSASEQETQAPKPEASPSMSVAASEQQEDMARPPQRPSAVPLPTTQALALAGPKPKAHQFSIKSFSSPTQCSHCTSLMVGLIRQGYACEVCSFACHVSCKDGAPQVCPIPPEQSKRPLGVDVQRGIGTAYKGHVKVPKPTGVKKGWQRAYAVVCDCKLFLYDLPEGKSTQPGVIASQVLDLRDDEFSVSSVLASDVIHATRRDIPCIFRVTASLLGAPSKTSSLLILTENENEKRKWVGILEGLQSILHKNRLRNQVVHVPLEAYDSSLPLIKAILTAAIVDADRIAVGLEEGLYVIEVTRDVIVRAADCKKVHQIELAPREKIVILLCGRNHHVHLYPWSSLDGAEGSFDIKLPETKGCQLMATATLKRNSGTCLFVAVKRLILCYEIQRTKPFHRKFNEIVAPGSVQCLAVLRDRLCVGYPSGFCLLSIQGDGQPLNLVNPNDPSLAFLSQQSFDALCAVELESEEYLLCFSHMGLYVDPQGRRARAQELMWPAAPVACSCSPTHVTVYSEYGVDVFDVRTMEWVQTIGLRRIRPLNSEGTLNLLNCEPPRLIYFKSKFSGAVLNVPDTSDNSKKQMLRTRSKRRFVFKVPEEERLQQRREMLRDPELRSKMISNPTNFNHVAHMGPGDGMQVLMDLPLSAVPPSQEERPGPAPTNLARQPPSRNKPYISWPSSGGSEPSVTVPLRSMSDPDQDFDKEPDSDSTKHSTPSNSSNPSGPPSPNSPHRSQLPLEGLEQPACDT
Procedure: (§1) MIB-elutions were then analyzed by western blot.
(§2) Kinome elutions were then analyzed using LC-MS/MS and changes in kinase binding quantified using label free quantitation.
(§3) Lysates were then incubated with MIBs for 45 minutes at 4° C. (Medard et al., J. Proteome Res., 2015, 14, 1574-1586) and added to gravity flow columns. The MIB preparation protocol was subsequently followed excluding the reduction and alkylation steps. Following methanol/chloroform precipitation, the precipitated pellet was resuspended in 20 μL complete MIBs lysis buffer and 4 μL 6×LSB was added to each sample. Samples were boiled at 100° C. for 5 minutes and subjected to western blot analysis. For the selectivity assay analyzed via LC-MS/MS, 5 mg OVSAHO lysates were preincubated with the same drug concentrations and incubated with MIBs, and the MIB preparation protocol was followed.

MRCKA [4] = molecular target: T1, MRCKA; assay: BDP5290 target profiling (in vitro kinase assays, MIB/MS proteomic analysis of drug binders); type: binding; parameters: endogenous in cells; host or cells: OVSAHO; conditions: doses <5 μM
Procedure: PCA plot of MIB-determined SILAC ratios.
(§4) Statistical kinases are identified using Students T-tests with FDR 0.05.
as §3

AURKB = molecular target: T3, AURKB (Homo sapiens, UniProt Q96GD4); assay: BDP5290 target profiling (in vitro kinase assays, MIB/MS and MIB-bead selectivity profiling); type: binding
T3 construct: endogenous in cells; host or cells: OVCAR4 cells; OVSAHO and KURAMOCHI lysates
T3 sequence (Q96GD4 whole entry): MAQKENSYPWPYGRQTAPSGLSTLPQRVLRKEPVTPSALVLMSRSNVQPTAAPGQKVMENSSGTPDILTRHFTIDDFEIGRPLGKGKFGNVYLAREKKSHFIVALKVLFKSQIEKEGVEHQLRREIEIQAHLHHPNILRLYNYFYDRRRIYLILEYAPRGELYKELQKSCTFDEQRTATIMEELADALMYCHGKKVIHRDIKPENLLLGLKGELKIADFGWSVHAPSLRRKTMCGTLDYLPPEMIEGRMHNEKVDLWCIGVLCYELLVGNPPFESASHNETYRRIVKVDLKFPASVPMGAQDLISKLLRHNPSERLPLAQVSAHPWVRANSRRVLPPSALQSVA
Procedure: as §4, §1, §2, §3

HGSOC cells [5] = assay: Cell viability of HGSOC cell line panel (Cell Titer Glo); type: cell-based, human
Procedure: Cells were treated with increasing concentrations of PF-03758309 and cell viability assessed by Cell Titer Glo according to manufacturer's instructions. Data represent the mean of six replicates.
Cell viability was assessed by Cell Titer Glo according to manufacturing. Data represent the mean of six replicates.
For short-term growth assays, 3000-5000 cells were plated per well in 96-well plates and allowed to adhere and equilibrate overnight. Drug was added the following morning and after 120 hours of drug treatment, cell viability was assessed using the CellTiter-Glo Luminescent cell viability assay according to manufacturer (Promega). Students t tests were performed for statistical analyses and p values ≤0.05 were considered significant. For colony formation assays, cells were plated in 24-well dishes (3000-5000 cells per well) and incubated overnight before continuous drug treatment for 14 days, with drug and media replaced twice weekly. At the end of treatment, cells were rinsed with PBS and fixed with chilled methanol for 10 minutes at −20° C. Methanol was removed by aspiration, and cells were stained with 0.5% crystal violet in 20% methanol for 20 minutes at room temperature, washed with distilled water, and scanned.

ROCK1 = molecular target: T4, ROCK1 (Homo sapiens, UniProt Q13464); assay: MIB/MS kinome profiling of inhibitor-treated OVSAHO cells; type: cell-based; conditions: 2 μM, 4 hours
T4 construct: endogenous in cells; host or cells: OVSAHO
T4 sequence (Q13464 whole entry): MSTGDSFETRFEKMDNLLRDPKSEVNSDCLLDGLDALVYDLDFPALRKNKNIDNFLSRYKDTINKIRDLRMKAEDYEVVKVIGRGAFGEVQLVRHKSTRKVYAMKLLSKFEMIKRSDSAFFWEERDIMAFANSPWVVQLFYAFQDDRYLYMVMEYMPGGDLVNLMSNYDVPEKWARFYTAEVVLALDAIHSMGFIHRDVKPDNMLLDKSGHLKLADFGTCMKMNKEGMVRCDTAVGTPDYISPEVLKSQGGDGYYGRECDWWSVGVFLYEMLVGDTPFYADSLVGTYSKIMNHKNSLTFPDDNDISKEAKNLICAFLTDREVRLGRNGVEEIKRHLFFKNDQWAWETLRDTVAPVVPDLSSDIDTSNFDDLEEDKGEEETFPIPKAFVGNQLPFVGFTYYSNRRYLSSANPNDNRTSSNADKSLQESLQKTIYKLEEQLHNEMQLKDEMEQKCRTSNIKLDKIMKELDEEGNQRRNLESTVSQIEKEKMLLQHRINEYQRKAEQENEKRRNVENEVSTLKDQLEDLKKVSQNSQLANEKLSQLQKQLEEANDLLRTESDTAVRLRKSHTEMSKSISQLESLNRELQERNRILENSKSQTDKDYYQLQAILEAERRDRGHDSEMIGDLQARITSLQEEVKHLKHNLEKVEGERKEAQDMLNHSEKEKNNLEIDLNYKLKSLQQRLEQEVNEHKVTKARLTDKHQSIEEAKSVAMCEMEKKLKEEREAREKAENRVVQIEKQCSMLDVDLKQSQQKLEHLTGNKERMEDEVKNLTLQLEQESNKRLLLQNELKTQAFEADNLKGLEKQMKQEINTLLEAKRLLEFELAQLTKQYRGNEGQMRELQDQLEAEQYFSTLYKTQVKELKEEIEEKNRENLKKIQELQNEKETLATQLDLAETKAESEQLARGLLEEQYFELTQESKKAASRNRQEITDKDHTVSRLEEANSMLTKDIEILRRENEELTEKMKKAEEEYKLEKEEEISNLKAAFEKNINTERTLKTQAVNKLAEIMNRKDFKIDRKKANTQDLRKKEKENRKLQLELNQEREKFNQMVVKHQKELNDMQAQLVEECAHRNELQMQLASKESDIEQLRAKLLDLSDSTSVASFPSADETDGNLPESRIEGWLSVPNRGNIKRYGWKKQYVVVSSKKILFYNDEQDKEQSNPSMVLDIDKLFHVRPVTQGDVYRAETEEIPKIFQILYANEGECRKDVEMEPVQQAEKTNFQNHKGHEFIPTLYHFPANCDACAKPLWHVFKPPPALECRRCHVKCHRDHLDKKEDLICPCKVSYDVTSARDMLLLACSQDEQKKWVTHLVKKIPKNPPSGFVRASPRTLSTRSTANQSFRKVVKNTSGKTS
Procedure: (§5) OVSAHO cells were treated with 2 μM of inhibitor for 4 hours and analyzed by MIB/MS. Scatterplot depicts difference in kinase MIB-binding of drug treated relative to control DMSO as determined by Students T-test.
Scatter plot depicts statistical differences in MIB-binding as a ratio of inhibitor/DMSO. Cells were treated with inhibitors at a dose of 2 μM and subjected to MIB/MS. Changes in MIB-binding were quantified using label free quantitation. Data presented in (A) are triplicate experiments SEM. *p≤0.05 by student's t-test.
(§6) MIB-based kinome profiling was performed on several of these molecules in HGSOC cells to determine kinome-wide inhibition profiles.
Experiments using MIB/MS were performed as previously described (Duncan et al., Cell, 2012, 149, 307-321; and Kurimchak et al., Cell Reports, 2016, 16, 1273-1286). […] Protein concentrations were determined by BCA analysis (Thermo). […] An equal amount of the HKS was added to the non-labeled sample (cell, tumor or normal tissue) providing a quantitative strategy to compare kinome activity/levels across samples, amongst treatments and, importantly, across time. […]

MRCKA [6] = molecular target: T1, MRCKA; assay: as above; type: cell-based; parameters: endogenous in cells; host or cells: OVSAHO; conditions: 2 μM, 4 hour treatment
Procedure: (§7) OVSAHO cells were treated with inhibitors at a dose of 2 μM for 4 hours and kinase inhibition profiles determined by MIB/MS. Bar graph depicts % of kinase bound to MIBs relative to DMSO control as determined by label free quantitation.
as §5, §6
(§8) Experiments using MIB/MS were performed as previously described (Duncan et al., Cell, 2012, 149, 307-321; and Kurimchak et al., Cell Reports, 2016, 16, 1273-1286). Briefly, cells or tumors were lysed on ice in buffer containing 50 mM HEPES (pH 7.5), 0.5% Triton X-100, 150 mM NaCl, 1 mM EDTA, 1 mM EGTA, 10 mM sodium fluoride, 2.5 mM sodium orthovanadate, 1× protease inhibitor cocktail (Roche), and 1% each of phosphatase inhibitor cocktails 2 and 3 (Sigma). Particulate was removed by centrifugation of lysates at 13,000 rpm for 10 minutes at 4° C. and filtration through 0.2 μm syringe filters. Protein concentrations were determined by BCA analysis (Thermo). To compare kinome signatures within and across such large sample sizes, a super-SILAC method was designed (Neubert et al., Nat. Meth., 2010, 7, 361-362) consisting of a cocktail of cancer cell lines that encompasses the activity of the “cancer kinome” to be used as a control for individual samples. Five cancer cell lines were selected from the NCI-60 panel (UACC257, MOLT4, COL0205, ACHN and PC3) that differed in their origin, gene expression patterns and mutation status. The cancer cell lines were labeled using SILAC and mixed equally providing a diverse SILAC ([^13C6,^15N4] arginine (Arg^10) and […] (Lys^8)) heavy kinome reference standard (HKS) to be used repeatedly in kinome profiling assays. An equal amount of the HKS was added to the non-labeled sample (cell, tumor or normal tissue) providing a quantitative strategy to compare kinome activity/levels across samples, amongst treatments and, importantly, across time. […]
(§9) Proteolytic peptides were resuspended in 0.1% formic acid and separated with a Thermo RSLC Ultimate 3000 on a Thermo Easy-Spray C18 PepMap 75 μm×50 cm C-18 2 μm column with a 240 minute gradient of 4-25% acetonitrile with 0.1% formic acid at 300 nL/min and 50° C. Eluted peptides were analyzed by a Thermo Q Exactive plus mass spectrometer utilizing a top 15 methodology in which the 15 most intense peptide precursor ions were subjected to fragmentation.

MRCKB [7] = molecular target: T2, MRCKB; assay: as above; type: cell-based; conditions: 2 μM, 4 hour treatment
Procedure: as §7, §5, §6, §8, §9

ROCK2 = molecular target: T5, ROCK2 (Homo sapiens, UniProt O75116); assay: as above; type: cell-based; conditions: 2 μM, 4 hours
T5 construct: endogenous in cells; host or cells: OVSAHO
Procedure: as §5, §6
Experiments using MIB/MS were performed as previously described (Duncan et al., Cell, 2012, 149, 307-321; and Kurimchak et al., Cell Reports, 2016, 16, 1273-1286). Briefly, cells or tumors were lysed on ice in buffer containing 50 mM HEPES (pH 7.5), 0.5% Triton X-100, 150 mM NaCl, 1 mM EDTA, 1 mM EGTA, 10 mM sodium fluoride, 2.5 mM sodium orthovanadate, 1× protease inhibitor cocktail (Roche), and 1% each of phosphatase inhibitor cocktails 2 and 3 (Sigma). Particulate was removed by centrifugation of lysates at 13,000 rpm for 10 minutes at 4° C. and filtration through 0.2 μm syringe filters. Protein concentrations were determined by BCA analysis (Thermo). To compare kinome signatures within and across such large sample sizes, a super-SILAC method was designed (Neubert et al., Nat. Meth., 2010, 7, 361-362) consisting of a cocktail of cancer cell lines that encompasses the activity of the “cancer kinome” to be used as a control for individual samples. […] An equal amount of the HKS was added to the non-labeled sample (cell, tumor or normal tissue) providing a quantitative strategy to compare kinome activity/levels across samples, amongst treatments and, importantly, across time. […]
as §9

HGSOC cells [8] = assay: Drug response in cells depleted of MRCKA by siRNA (Cell Titer Glo, cleaved PARP blots); type: cell-based, human
Procedure: (§10) Cells transfected with control or MRKCA siRNAs were treated with increasing doses of carboplatin. Cell viability was assessed by Cell Titer Glo according to manufacturer's instructions. Data represent the mean of six replicates. GR50 were determined using PRISM.
Cells transfected with control or MRKCA siRNAs were treated with increasing doses of olaparib. Cell viability was assessed by Cell Titer Glo according to manufacturer's instructions. Data represent the mean of six replicates. GR50 were determined using PRISM.
(§11) To explore if blocking dark kinases AAK1, STK38 or MRCKA activity in combination with current therapies improves drug efficacy, OVCAR4 cells depleted of AAK1, STK38 or MRCKA were treated with increasing doses of carboplatin, olaparib, JQ1, or a variety of kinase inhibitors in clinical trials for HGSOC.
(§12) siRNA transfections were performed using 25 nM siRNA duplex and the reverse transfection protocol. 3000-5000 cells per well were added to 96 well plates with media containing the siRNA and transfection reagent (Lipofectamine RNAiMax) according to the manufacturer's instructions. In experiments where inhibitors were used, the inhibitor was added at the time of transfection. Cells were allowed to grow for 72-120 hours post-transfection prior to CellTiter Glo (Promega) analysis. Two-to-three independent experiments were performed with each cell line and siRNA. Students t tests were performed for statistical analyses and p values ≤0.05 were considered significant. For western blot studies, the same procedure was performed with volumes and cell numbers proportionally scaled to a 60 mm or 10 cm dish, and cells were collected 24-72 hours post-transfection. siRNA product numbers and manufacturers are listed in Table 5.

[9] = system: carboplatin-resistant COV362 cells; assay: Carboplatin response in cells depleted of MRCKA by siRNA; type: cell-based, human
Procedure: as §10, §11
as §12, with “For western blot studies, the same procedure was performed with volumes and cell numbers proportionally scaled to a 60 mm or 10 cm dish, and cells were collected 24-72 hours post-transfection. siRNA product numbers and manufacturers are listed in Table 5.” left out

OVCAR4 cells = assay: Drug growth inhibition in cells depleted of dark kinases by siRNA (Cell Titer Glo); type: cell-based, human; conditions: increasing doses of drug
Procedure: OVCAR4 cells were transfected with control nontargeting or dark kinase siRNAs and treated with escalating doses of appropriate drugs.
as §11, §12

[10] = cell lysates incubated with increasing doses for 30 minutes

O=C(Nc1cn[nH]c1-c1ccccn1)c1nn(C2CCNCC2)cc1Cl [BDP5290]
pMLC, pMYPT1, pFAK or total FAK1 or CHEK1 levels ([1]; HGSOC cells, 0.5, 1 or 3 μM): did not reduce | Ki (MRCKA [2]): 0.01 µM | elution of MRCKB from MIB beads (western blot) (MRCKB [3]; [10]): not MRCKB | activity against primary target MRCKB in HGSOC cells (MRCKB [3]; doses <5 μM): little activity | activity against primary target MRCKA in HGSOC cells (MRCKA [4]): little activity | elution of AURKB from MIB beads (western blot) (AURKB; [10]): elute AURKB | off-target activity on AURKB in HGSOC cells (AURKB; doses <5 μM): off-targets | potency in HGSOC cells (HGSOC cells [5]; doses <5 μM): minimal potency | cell viability of HGSOC cells (HGSOC cells [5]; increasing concentrations, Cell Titer Glo): inhibiting HGSOC cell viability at higher concentrations; also recorded: minimal effects

O=C(NCc1cccc(O)c1)Nc1nc(-c2ccncc2)cs1 [RKI-1447]
FAK1, MLC and Paxillin phosphorylation [1]: reduced | MIB-binding of ROCK1 (ROCK1): reduction in MIB-binding

CC1=C(C(=O)Nc2cc(Cl)c3[nH]ncc3c2)C(c2ccc(C(F)(F)F)cc2)CC(=O)N1 (centres unmarked) [GSK466317A]
FAK1, MLC and Paxillin phosphorylation [1]: reduced | MIB-binding of ROCK1 (ROCK1): reduction in MIB-binding | MIB-binding of MRCKA relative to DMSO (MRCKA [6]): Reduced MIB-binding | MIB-binding of MRCKB relative to DMSO (MRCKB [7]): Reduced MIB-binding | MIB-binding of ROCK2 (ROCK2): reduction in MIB-binding

N.N.O=C([O-])C1(C(=O)[O-])CCC1.[Pt+2] [carboplatin]
apoptosis (cleaved PARP) of drug plus MRCKA depletion (HGSOC cells [8]; HGSOC cell lines): induced apoptosis better than individual therapies | effect of drug on cell viability with MRCKA depletion (HGSOC cells [8]; additional HGSOC cell lines, increasing doses): enhanced the effect of carboplatin | cell growth and apoptosis, MRCKA knockdown in combination with drug [9]: inhibited cell growth and induced apoptosis | growth inhibition by drug with MRCKA knockdown relative to non-targeting control siRNA (OVCAR4 cells): enhanced growth inhibition
